Measured values as given in patent US12171807B2, “Use of bremelanotide in patients with controlled hypertension” (Cosette Pharmaceuticals, Inc., priority 2020, dated 2024).

How the values were obtained:
[1] = repeat doses of BMT; review of IND 64119; cited from earlier work
[2] = Repeat dosing ambulatory blood pressure monitoring study, bremelanotide 1.75 mg SC daily for 8 days then randomized withdrawal (days 9 to 16); format: in vivo, human; conditions: after 16 days of dosing of bremelanotide 1.75 mg SC
[3] = as above; format: in vivo, human; conditions: for mean change (95% CI) in daytime systolic BP: day 8; for Difference from Baseline, daytime diastolic BP at Day 8 / Difference from Baseline, daytime systolic BP at Day 8: BP in mmHg
Procedure: The study focusing on the impact of repeat dosing on blood pressure included 127 women treated with bremelanotide 1.75 mg administered subcutaneously (SC) daily for 8 consecutive days, followed by a randomized withdrawal period of 8 additional consecutive days (days 9 to 16) in which study participants were randomized to either remain on bremelanotide 1.75 mg SC daily or placebo SC daily. Ambulatory blood pressure monitoring was performed on baseline day −1 (single blind placebo), day 8 and on day 16. After 8 days of dosing of bremelanotide 1.75 mg SC, the mean changes from baseline in the 24 hour systolic and diastolic BPs (FIG. 1) were below 2 mmHg. Importantly, the upper bound of the 95% confidence interval for the mean changes in daytime systolic BP (a pre-specified outcome) was below 4 mmHg. These increases in BP were accompanied by small to no reductions in the heart rate of 1 beat/minute or less.
There were 122 (96%) study participants who completed the randomized withdrawal portion of the study. […] In those randomized to placebo, returns toward baseline BP values were observed (generally a 2 mmHg decline from day 8).
The patient population was comprised of normotensive premenopausal women and included 2 women with a medical history of hypertension on antihypertensive therapy. One subject was being treated for hypertension with Lisinopril. The other subject was being treated for hypertension with chlorthalidone. Both subjects received all 16 injections; 8 doses in the Open-Label Period and 8 doses in the Randomized Withdrawal Period (one subject was randomized to each treatment group). […] The mean changes from Baseline (Day −1) at Day 8 during daytime in these two subjects are shown in the below table. Changes in daytime HR at Day 8 were −1.7 bpm for the subject and −1.4 bpm for the subject.
In order to better understand the potential effects of the drug in patients with higher BP values at baseline, an exploratory analysis was performed from the trial evaluating those women whose baseline BP was in the 90th percentile (pre-dose systolic BP >124 mmHg) to determine if the pressor response of bremelanotide differed from those study participants whose baseline BP was below the 90th percentile (pre-dose systolic BP <124 mmHg). At day 8, mean changes (95% CI) from the daytime systolic BP in those study participants in the 90th percentile or greater (n=17) at baseline was −0.16 (−2.06, 1.75) mmHg versus 2.03 (1.70, 2.36) mmHg in those whose baseline systolic BP was below the 90th percentile.

[4] = Blood pressure by time post-dose, Bremelanotide 2 mg SC vs placebo; format: in vivo; conditions: 2 mg SC (n = 30)
[5] = Pressor effect in obese women receiving supratherapeutic doses (6.5 mg daily) for 15 days; format: in vivo, human; conditions: 15 days at 6.5 mg daily
[6] = Drug-drug interaction study with antihypertensive agents, single dose bremelanotide 1.75 mg SC vs placebo, ambulatory BP monitoring; format: in vivo, human
Procedure: An additional study evaluated the effects of single doses of bremelanotide 1.75 mg SC and placebo SC in normotensive, healthy women pre-treated with 5 different classes of antihypertensive drugs in a double-blind cross-over design using ambulatory BP monitoring. The washout period between randomized, blinded treatments was 48 hours. This study included both premenopausal and postmenopausal women. There were 15 healthy […] subjects in each panel of the antihypertensive medications with the exception of the beta-blocker metoprolol (n=17). Blood pressures at baseline in the various panels were low normal (24 hour systolic BPs ranging from 109 to 114 mmHg and 24 hour diastolic BPs ranging from 67 to 72 mmHg (FIG. 2). The placebo-corrected changes from baseline in the 24-hour systolic BPs on bremelanotide 1.75 mg SC ranged from 1.7 mmHg on amlodipine to 3.8 mmHg on hydrochlorothiazide; changes in the 24 hour diastolic BPs ranged from 1.8 mmHg on metoprolol to 2.8 mmHg on lisinopril. In 4 of the 5 classes of antihypertensive medications, nighttime BP changes were substantially lower than daytime BP changes. In study participants pre-treated with hydrochlorothiazide 12.5 mg daily, nighttime BPs increased by 5.5/4.5 mmHg. In review of individual subjects in the HCTZ panel, it was noted that 4 study participants had large reductions in nighttime SBP (10-15 mmHg) on placebo while on bremelanotide 4 study participants had large increases in nighttime SBP (10-15 mmHg).
1. […] There was an elevation in nighttime BP in patients pre-treated with hydrochlorothiazide 12.5 mg, which has no apparent pharmacologic basis and is like the result of random variability in both the bremelanotide and placebo sub-groups. As noted, there was no similar finding in the 4 other antihypertensive panels.

[7] = 2 women with history of hypertension on antihypertensive therapy
[8] = 61 women, 1.75 mg SC for 16 consecutive days
[9] = following 8 consecutive days of dosing
[10] = subject treated with Lisinopril
[11] = subject treated with chlorthalidone
[12] = subject with hypertension treated with Lisinopril, baseline (Day −1) 105/70 mmHg
[13] = subject with hypertension treated with chlorthalidone, baseline (Day −1) 121/81 mmHg
[14] = single dose 1.75 mg SC, pre-treated with hydrochlorothiazide 12.5 mg daily

- large increases in nighttime SBP in individual subjects ([6]; 4 study participants of the HCTZ panel on bremelanotide): 10-15 mmHg
- induction of hypertension by BP increases ([6]; single dose 1.75 mg SC, healthy women on antihypertensive therapy at steady-state): did not induce hypertension
- nighttime BP increase, diastolic [6, 14]: 4.5 mmHg
- nighttime BP increase, systolic [6, 14]: 5.5 mmHg
- placebo-corrected change from baseline in 24-hour systolic BP ([6]; single dose 1.75 mg SC, women pre-treated with amlodipine): 1.7 mmHg
- placebo-corrected change from baseline in 24-hour systolic BP ([6]; single dose 1.75 mg SC, women pre-treated with hydrochlorothiazide): 3.8 mmHg
- placebo-corrected change from baseline in 24 hour diastolic BP ([6]; single dose 1.75 mg SC, women pre-treated with lisinopril): 2.8 mmHg
- placebo-corrected change from baseline in 24 hour diastolic BP ([6]; single dose 1.75 mg SC, women pre-treated with metoprolol): 1.8 mmHg
SMILES: CCCC[C@H](NC(C)=O)C(=O)N[C@H]1CC(=O)NCCCC[C@@H](C(=O)O)NC(=O)[C@H](Cc2c[nH]c3ccccc23)NC(=O)[C@H](CCCN=C(N)N)NC(=O)[C@@H](Cc2ccccc2)NC(=O)[C@H](Cc2cnc[nH]2)NC1=O [bremelanotide, Ac-Nle-cyclo(-Asp-His-D-Phe-Arg-Trp-Lys)-OH]
- duration of blood pressure effect [1]: at least four hours
- increases in systolic and diastolic blood pressures [1]: approximately 4 mmHg
- daytime systolic BP change by baseline BP percentile, trend [2]: Trends were similar
- outlier analysis: systolic BP elevation of >150 mmHg or diastolic BP elevation >95 mmHg lasting for 120 minutes ([3]; 1.75 mg SC daily): 1 (0.8%) study participants (%)
- outlier analysis: systolic BP elevation of >160 mmHg or diastolic BP elevation of >100 mmHg lasting more than 90 minutes ([3]; 1.75 mg SC daily): 2 (1.6%) study participants (%)
- abnormalities on ECG [3, 7]: neither subject had clinically significant abnormalities on ECG
- cardiovascular TEAE [3, 7]: No cardiovascular TEAE were reported
- intensity of TEAE [3, 7]: all were mild in intensity
- increases in 24 hour BP from placebo baseline (Day −1) [3, 8]: < 1 mmHg
- increases in average daytime BPs from placebo baseline (Day −1) [3, 8]: < 1.5 mmHg
- cumulative effect on daytime BP or heart rate compared to baseline or day 8 ([3]; 16 days of consecutive administration): no cumulative increases in daytime BP or reductions in heart rate
- reductions in the heart rate ([3]; after 8 days of 1.75 mg SC daily): ≤ 1 beat/minute
- mean change from baseline in 24 hour diastolic BP ([3]; after 8 days of 1.75 mg SC daily, 127 women): below 2 mmHg
- mean change (95% CI) in daytime systolic BP ([3]; baseline BP in the 90th percentile or greater (pre-dose systolic BP >124 mmHg), n=17): −0.16 (−2.06, 1.75) mmHg
- mean change (95% CI) in daytime systolic BP ([3]; baseline systolic BP below the 90th percentile): 2.03 (1.70, 2.36) mmHg
- time of peak effects on BP post-dose [3, 9]: 3 to 5 h
- time post-dose by which BP effect attenuated [3, 9]: ≤ 8 h
- nighttime BP ([3]; following 8 days of consecutive therapy): no increases in nighttime BP
- complications or symptoms associated with transient stage 2 hypertension levels ([3]; outlier subjects): In none of these subjects were there complications or symptoms
- Change in daytime HR at Day 8 [3, 10]: −1.7 bpm
- Difference from Baseline, daytime diastolic BP at Day 8 [3, 10]: +4 diastolic
- Difference from Baseline, daytime systolic BP at Day 8 [3, 10]: +3 systolic;
- Change in daytime HR at Day 8 [3, 11]: −1.4 bpm
- Difference from Baseline, daytime diastolic BP at Day 8 [3, 11]: −4 diastolic
- Difference from Baseline, daytime systolic BP at Day 8 [3, 11]: −9 systolic;
- Day 8 Daytime BP, diastolic [3, 12]: 74 mmHg
- Day 8 Daytime BP, systolic [3, 12]: 108 mmHg
- Day 8 Daytime BP, diastolic [3, 13]: 77 mmHg
- Day 8 Daytime BP, systolic [3, 13]: 112 mmHg
- Diastolic Blood Pressure ([4]; Hour 1 post-dose): 1.00 (−3.13, 5.13)
- Systolic Blood Pressure ([4]; Hour 1 post-dose): 2.36 (−2.15, 6.87)
- Diastolic Blood Pressure ([4]; Hour 2 post-dose): 1.03 (−2.96, 5.02)
- Systolic Blood Pressure ([4]; Hour 2 post-dose): 0.01 (−4.18, 4.20)
- Diastolic Blood Pressure ([4]; Hour 3 post-dose): 1.26 (−2.74, 5.26)
- Systolic Blood Pressure ([4]; Hour 3 post-dose): 0.84 (−3.55, 5.23)
- Diastolic Blood Pressure ([4]; Hour 4 post-dose): −1.38 (−6.00, 3.24)
- Systolic Blood Pressure ([4]; Hour 4 post-dose): 0.38 (−3.13, 3.90)
- cumulative effect on blood pressure or heart rate [5]: no evidence for a cumulative effect on blood pressure or heart rate
